Measured values from patent publication EP0189596A1, “Benzofuran and benzothiophene derivatives” (SHIONOGI & CO., LTD., priority 1984, dated 1986).

Columns and labels:
[1] = Bioassay for Diuretic Effect on Mice; format: in vivo, Slc:ddy mice; details: Mouse, oral, Dose (mg) 30, urine collected for 4 hours, percentage to control (100%)
Protocol: (§1) I . Test Method: • Experiments with rats and mice were carried out according to Assay Programs #27-104 and #27-106, respectively. The outline is as follows.
Slc:ddy 5-week-old mice (female, about 20g body-weight each) were used for the test. From the morning of the day before the test day, the mice were fasted but water. In the morning of the test day, a sample which was prepared by suspending or dissolving a test compound in 2% gum arabic was orally administered to each at 30 ml/kg. On the other hand, mere by 2% gum arabic was orally administered to the control group at 30 ml/kg. Immediately after the administration, 5 mice employed were put in a plastic cage for the metabolic tests and their urine samples were collected for 4 hours. The cumulative urine volume, urinary sodium (Na^+), and urinary potassium (K^+) were quantitatively determined. II. Test Results
(§2) Results regarding the urine volume are shown by percentages to control (100%). Also, results regarding the urinary sodium (Na^+) and the urinary potassium (K^+) are shown by percentages to control (100%).

[2] = Bioassay for Diuretic Effect on Rats; format: in vivo, SLc:SD rats; details: Rat, oral, percentage to control (100%)
Protocol: as §1
SLc:SD 8-week-old rats (male, about 250g body-weight each) were used for the test. A few lumps of sugar in place of ordinary diets were given on the morning of the day before the test day and 5% glucose solution was given orally at a rate of 20 ml/kg in the evening (approximately at 4 p.m.) of the […]. In the morning for the test, a sample which was prepared by suspending or dissolving a test compound in 2X gum arabic was orally administered to each at a dose of 20 ml/kg. On the other hand, mere by 2% gum arabic was orally administered to the control group at 20 ml/kg. Immediately after the administration, the test animals were put in a plastic cage for the metabolic tests and their urine samples were collected for 5 hours. The cumulative urine volume, urinary sodium (Na^+), and urinary potassium (K^+) were quantitatively determined.
as §2

[3] = Dose (mg) 50, urine collected for 5 hours
[4] = Dose (mg) 10, urine collected for 5 hours

SMILES	Urinary K^+ (%) [1]	Urinary Na^+ (%) [1]	Urine Vol. (%) [1]	Urinary K^+ (%) [2, 3]	Urinary Na^+ (%) [2, 3]	Urine Vol. (%) [2, 3]	Urinary K^+ (%) [2, 4]	Urinary Na^+ (%) [2, 4]	Urine Vol. (%) [2, 4]
CC(C(=O)c1cc2c(c(Cl)c1Cl)OC(C(=O)O)C2)=C1SCCS1 (stereo not drawn) [Example 3]	304※ %	1370※ %	270※ %	217※ %	291※ %	153※ %			
CSC(SC)=C(C)C(=O)c1cc2c(c(C)c1Cl)OC(C(=O)O)C2 (stereo not drawn) [Example 14]	330※ %	743※ %	296※ %						
CSC(=CC(=O)c1cc2c(c(Cl)c1Cl)OC(C(=O)OCC(=O)O)C2)SC (stereo not drawn) [Example 17, 6.7-Dichloro-5-[3,3-bis(metbylthic)-2-propenoyl]-2,3-dibydro-1-benzofuran-2-carboxyacetic acid]	277※ %	970※ %	216※ %	285※ %	478※ %	144※ %			
CC(C(=O)c1cc2c(c(Cl)c1Cl)OC(C(=O)O)C2)=C1OCCS1 (stereo not drawn) [Example 21]	273※ %	704※ %	155※ %	178※ %	179※ %	104%			
CSC(=CC(=O)c1cc2c(c(Cl)c1Cl)OC(C=O)C2)SC (stereo not drawn) [Example 28]	260^※ %	905^※ %	222^※ %						
CNC(=S)CC(=O)c1cc2c(c(Cl)c1Cl)OC(C(=O)O)C2 (stereo not drawn) [Example 67, 6,7-dichloro-5-[[N-methyl(thiocarbamoyl)]-acbtyl]-2,3-dihydrobenzofuran-2-carbaxylic acid]	232^※ %	610^※ %	192^※ %	306^※ %	377^※ %	148^※ %			
O=C(C=C1NC=CS1)c1cc2c(c(Cl)c1Cl)OC(C(=O)O)C2 (stereo not drawn) [Example 70, 6,7-dichloro-5-((4-thiazolin-2-ylidene)acetyl]-2,3-dihydro-benzofuran-2-carboxylic acid]	178^※ %	410^※ %	144^※ %	374^※ %	459^※ %	154^※ %			
C=C1CNC(=CC(=O)c2cc3c(c(Cl)c2Cl)OC(C(=O)O)C3)S1 (stereo not drawn) [Example 80]	344^※ %	738^※ %	264^※ %				161^※ %	211^※ %	101%
CSc1[nH]ccc1C(=O)c1cc2c(c(Cl)c1Cl)OC(C(=O)O)C2 (stereo not drawn) [Example 98, 6,7-dichloro-5-[2-(methylthio)pyrrol-3-yl-carbonyl]-2,3-dihydrobenzofuran-2-carboxylic acid]	292^※ %	810^※ %	222^※ %				254^※ %	445^※ %	157^※ %
